Source: ChEMBL document CHEMBL4270560, “Novel curcumin analogue hybrids: Synthesis and anticancer activity” (Eur J Med Chem, 2018)
pIC50: −log10 of the molar value.

Key:
MGC-803 = experiment: Antiproliferative activity against human MGC803 cells after 48 hrs by MTT assay; assay type: functional, cell-based; conditions: MGC-803, 48 h
SGC-7901 [1] = experiment: Antiproliferative activity against human SGC7901 cells after 48 hrs by MTT assay; assay type: functional, cell-based; conditions: SGC-7901, 48 h
U-87 MG = experiment: Antiproliferative activity against human U87 cells after 48 hrs by MTT assay; assay type: functional, cell-based, U-87MG ATCC
SMMC-7721 = experiment: Antiproliferative activity against human SMMC7721 cells after 48 hrs by MTT assay; assay type: functional, cell-based; conditions: SMMC-7721, 48 h
SGC-7901 [2] = experiment: Induction of mitochondrial membrane depolarization in human SGC7901 cells assessed as cells with intact mitochondrial membrane potential after 48 hrs by JC-1 staining based flow cytometric analysis (reference value: 87.3%); assay type: functional
SGC-7901 [3] = experiment: Induction of mitochondrial membrane depolarization in human SGC7901 cells assessed as cells with mitochondrial membrane potential loss after 48 hrs by JC-1 staining based flow cytometric analysis (reference value: 9.29%); assay type: functional

SMILES | pIC50 (MGC-803) | pIC50 (SGC-7901 [1]) | pIC50 (U-87 MG) | pIC50 (SMMC-7721) | Activity (SGC-7901 [2]) | Activity (SGC-7901 [3])
COc1cc(OC)c2c(=O)c(OCCCCOc3ccc(/C=C/C(=O)/C=C/c4ccccn4)cc3)c(-c3cc(OC)c(OC)c(OC)c3)oc2c1 | 5.71 | 5.62 | 5.33 | 5.77 | – | –
COc1cccc2c1C(=O)c1c(O)c3c(c(O)c1C2=O)C[C@@](O)(C(=O)CO)C[C@@H]3O[C@H]1C[C@H](N)[C@H](O)[C@H](C)O1 [DOXORUBICIN] | 6.40 | 6.06 | 6.32 | 6.14 | – | –
COc1ccc(/C=C/C(=O)/C=C/c2ccc(Oc3cc(=O)oc4ccccc34)cc2)cc1OC | 4.31 | 4.31 | – | – | – | –
COc1cc(OC)c2c(=O)c(OCCCOc3ccccc3/C=C/C(=O)/C=C/c3scnc3C)c(-c3cc(OC)c(OC)c(OC)c3)oc2c1 | 5.25 | 5.32 | 5.02 | 5.14 | – | –
O=C(/C=C/c1ccc(Oc2cc(=O)oc3ccccc23)cc1)/C=C/c1cccnc1 | 4.61 | 4.76 | 4.43 | 4.48 | – | –
COc1cc(OC)c2c(=O)c(OCCCCOc3ccc(/C=C/C(=O)/C=C/c4scnc4C)cc3)c(-c3cc(OC)c(OC)c(OC)c3)oc2c1 | 4.26 | 4.38 | 4.23 | 4.19 | – | –
COc1cc(OC)c2c(=O)c(OCCCOc3ccc(/C=C/C(=O)/C=C/c4scnc4C)cc3)c(-c3cc(OC)c(OC)c(OC)c3)oc2c1 | 4.50 | 4.31 | 4.39 | 4.46 | – | –
N#CC(C#N)=NNc1cccc(Cl)c1 [CARBONYL CYANIDE M-CHLOROPHENYLHYDRAZONE] | – | – | – | – | 27.7% | 64.6%
O=C(/C=C/c1ccc(Cl)cc1)/C=C/c1ccc(Oc2cc(=O)oc3ccccc23)cc1 | 4.26 | 4.32 | – | – | – | –
O=C(/C=C/c1ccc(Oc2cc(=O)oc3ccccc23)cc1)/C=C/c1ccccn1 | 4.71 | 4.60 | 4.29 | 4.45 | – | –

Now from value to molecule, other results behind:

pIC50 (MGC-803) | pIC50 (SGC-7901 [1]) | pIC50 (U-87 MG) | pIC50 (SMMC-7721) | SMILES | Activity (SGC-7901 [2]) | Activity (SGC-7901 [3])
4.69 | 4.58 | 4.68 | 4.83 | COc1cc(OC)c2c(=O)c(OCCCCOc3ccccc3/C=C/C(=O)/C=C/c3cccs3)c(-c3cc(OC)c(OC)c(OC)c3)oc2c1 | – | –
5.10 | 5.05 | 4.97 | 5.07 | COc1cc(OC)c2c(=O)c(OCCCCOc3ccccc3/C=C/C(=O)/C=C/c3ccco3)c(-c3cc(OC)c(OC)c(OC)c3)oc2c1 | – | –
5.24 | 5.27 | 5.10 | 5.04 | COc1cc(OC)c2c(=O)c(OCCCOc3ccccc3/C=C/C(=O)/C=C/c3cccc([N+](=O)[O-])c3)c(-c3cc(OC)c(OC)c(OC)c3)oc2c1 | – | –
4.73 | 5.04 | 4.68 | 4.38 | COc1cc(OC)c2c(=O)c(OCCCCOc3ccccc3/C=C/C(=O)/C=C/c3ccc(Cl)cc3)c(-c3cc(OC)c(OC)c(OC)c3)oc2c1 | – | –
5.30 | 5.39 | 5.00 | 5.14 | COc1cc(OC)c2c(=O)c(OCCCCOc3ccccc3/C=C/C(=O)/C=C/c3cccc([N+](=O)[O-])c3)c(-c3cc(OC)c(OC)c(OC)c3)oc2c1 | – | –
